In publication PMC11320574 (ACS Infectious Diseases, 2024):
Positions of bridges follow the written chain, without caps; N, C: chain ends. Residues, ends and D or L forms follow the SMILES beside them.

Key:
[1] = Resistance to breakdown by serum proteases; assay type: in vitro ADME; conditions: human, 25% (v/v) human serum in PBS
P. falciparum 3D7 = experiment: In vitro growth inhibition of P. falciparum 3D7; assay type: cell-based, Plasmodium falciparum; conditions: HC10 of uninfected RBCs relative to Pf IC50 with 5 mg/mL Albumax II supplement

Question: With `CC[C@H](C)[C@@H]1NC(=O)[C@H](CCCCN)NC(=O)[C@H](CCCCN)NC(=O)[C@H](Cc2ccc(O)cc2)NC(=O)[C@H](CC(C)C)NC(=O)[C@@H]2CCCN2C(=O)[C@H](C)NC(=O)CNC(=O)CNC(=O)[C@H](CO)NC(=O)CNC(=O)CNC(=O)[C@H](CO)NC(=O)[C@H](CCCCN)NC(=O)[C@H](CC(C)C)NC(=O)[C@H](CC(C)C)NC(=O)[C@H](CCCCN)NC(=O)[C@H](CCCCN)NC(=O)[C@H]([C@@H](C)CC)NC(=O)[C@H]([C@@H](C)CC)NC(=O)[C@H](CCCCN)NC(=O)[C@H](CCCCN)NC(=O)[C@H](Cc2ccc(O)cc2)NC(=O)[C@H](CC(C)C)NC(=O)[C@@H]2CCCN2C(=O)CNC(=O)CNC(=O)[C@@H](NC(=O)CN)CSSC[C@@H](C(N)=O)NC(=O)[C@H](CC(C)C)NC(=O)[C@H](CCCCN)NC(=O)[C@H](CCCCN)NC(=O)[C@H]([C@@H](C)CC)NC1=O` [Peptide 10] (H-GCGGPLYKKIIKKLLKSGGSGGAPLYKKIIKKLC-NH2; disulfide 2-34; N-terminus assumed) as the compound, how does the remaining at 24 h, 50 μM [1] read?
Answer: The remaining at 24 h, 50 μM was 0%.

Question: And the “Activity-hemolysis index RBC HC10/ Pf IC50” value (P. falciparum 3D7)?
Answer: The value was 6.5 ± 1.2.
